Experimental data from patent publication US20240150691A1, “BILE DUCT CHIP AND USE THEREOF” (Kyoto University, priority 2021, published 2024).

Experiments:
MRP2 = molecular target: T1, MRP2 (Homo sapiens, UniProt Q92887); experiment: CDFDA transport assay; type: cell-based; conditions: 10 μM CDFDA in upper layer flow path, 3 hours, co-culturing with HuCCT1 cells versus PHH only
T1 construct: endogenous in cells; host or cells: primary human hepatocytes (PHH), alone or co-cultured with HuCCT1 cells, in the microfluidic device
Method: 10 μM of 5(6)-carboxy-2′,7′-dichlorofluorescein diacetate (CDFDA) was added to the upper layer flow path. After 3 hours, the culture supernatant from the lower layer flow path was recovered. The fluorescence intensity of 5(6)-carboxy-2′,7′-dichlorofluorescein (CDF) in the recovered culture supernatant, which is a metabolite of CDFDA, was measured.
Subsequently, 5(6)-carboxy-2′,7′-dichlorofluorescein diacetate (CDFDA) was added to the upper layer flow path of the intrahepatic bile duct chip, and after 3 hours, the fluorescence of the culture medium in the lower layer flow path was measured. In living cells, CDFDA is hydrolyzed to 5(6)-carboxy-2′,7′-dichlorofluorescein (CDF). CDF is a substrate of MRP2, which is a transporter. Therefore, the CDF transported to the lower layer flow path can be quantified by measuring the fluorescence intensity.
FIG. 13 is a graph showing results of measuring the fluorescence intensity.

CYP3A4 = experiment: Measurement of CYP activity using CYP substrates in PHH (MDZ to 1OH-MDZ); type: in vitro ADME, human
Method: The LC-MS/MS analysis was carried out to measure the activity of CYP. Prior to a CYP substrate treatment, PHH was cultured in DMEM containing 10 mM HEPES for 30 minutes. Subsequently, the PHH was cultured in a culture medium containing 5 μM MDZ (the metabolite thereof is 1OH-MDZ), 50 μM MPHT (the metabolite thereof is 4OH-MPHT), 5 μM DIC (the metabolite thereof is 4OH-DIC), 10 μM BUF (the metabolite thereof is 1OH-BUF), or 50 μM PHE (the metabolite thereof is APAP). The supernatant was recovered 1, 2, and 4 hours after the treatment with the substrate. At the time of recovering the supernatant, an equal amount of a culture medium containing the substrate was added.
The recovered supernatant was mixed with acetonitrile (FUJIFILM Wako Pure Chemical Corporation) containing an equal volume of 5 μM propranolol (internal standard). The specimen was filtered through a Cosmonice Filter W (Nacalai Tesque, Inc.) having a pore size of 0.45 μm, the supernatant was subsequently analyzed by LC-MS/MS, and the concentration of the metabolite was measured based on the standard curve. The LC-MS/MS analysis was carried out using LCMS-8040 (Shimadzu Corporation).
Subsequently, the drug metabolic activities of the PHH cultured in the PDMS device and the PS plate were compared. First, PHH was treated with each of MDZ, DIC, PHE, BUF, and MPHT, which are substrates of CYP3A4, CYP2C9, CYP1A2, CYP2D6, and CYP2C19. Subsequently, after 1, 2, and 4 hours, the amounts of the metabolites (OH-MDZ, 4OH-DIC, APAP, 1OH-BUF, and 4OH-MPHT) generated in the culture medium were measured by LC-MS/MS.

[1] = Drug absorption in microfluidic device without PHH (LC-MS/MS); type: physicochemical; conditions: for concentration during the observation period: 1 to 4 hours, microfluidic device; for Drug absorption rate: Microfluidic device/Polystyrene plate; for Drug absorption rate / concentration as % of initial concentration: without PHH; for absorption in the microfluidic device: PDMS device without PHH; for concentration as % of initial concentration: 1 hour after the injection into the microfluidic device
Method: (§1) A culture medium containing MDZ, DIC, PHE, BUF, or MPHT was added to a microfluidic device or a polystyrene plate. Subsequently, 1, 2, and 4 hours after the addition of the drugs, the amounts of these drugs were quantified with LC-MS/MS.
as §1, with “APAP (a CYP1A2 metabolite), 1OH-MDZ (a CYP3A4 metabolite), 4OH-DIC (a CYP2C9 metabolite), 4OH-MPHT (a CYP2C19 metabolite),” for “MDZ, DIC, PHE, BUF,”, “1OH-BUF (a CYP2D6 metabolite)” for “MPHT”
Subsequently, it was examined whether the absorption of the drugs and metabolites could be predicted by the relative physicochemical characteristics between the microfluidic device and the polystyrene plate. The drug absorption rate between the microfluidic device and the polystyrene plate was calculated. Subsequently, a correlation coefficient R^2 value between the drug absorption rate and the physicochemical characteristics (DiffCoef, M Log P, S+Log P, S+log D, MWt, and tPSA) of the drugs was calculated.

CYP3A = type: in vitro ADME, human
Method: The supernatant was recovered 1, 2, and 4 hours after the treatment with the substrate. At the time of recovering the supernatant, an equal volume of a culture medium containing the substrate was added.
A fraction (20 μL) of the recovered supernatant was mixed with 20 μL of Milli-Q water and 120 μL of acetonitrile containing […] 10 nM of an internal standard (fluvastatin, FUJIFILM Wako Pure Chemical Corporation). After centrifugation, 100 μL of the supernatant was analyzed by LC-MS/MS.
Chromatography was carried out using a Nexera X2 LC system (Shimadzu Corporation), and quantification was carried out using QTRAP 5500+ (AB Sciex LLC).
A mass spectrometer was set to an MRM mode and operated with an electrospray ionization source.

FXR = experiment: Change in bile acid signaling upon drug exposure in PHH (quantitative RT-PCR); conditions: 100 μM CDCA and 2.5 μM GW4046, 72 hours, PHH in microfluidic device or polystyrene plate
Method: Subsequently, a change in bile acid signaling upon drug exposure was examined.
Subsequently, the gene expression levels of BSEP and CYP7A1 were measured by quantitative RT-PCR.

[2] = tested on: PHH and the HuCCT1 cells of the intrahepatic bile duct chip; experiment: Response to bile acid signaling in intrahepatic bile duct chip (quantitative RT-PCR); type: cell-based, human; conditions: 100 μM CDCA, 72 hours, versus DMSO
Method: In addition, the response to bile acid signaling in PHH was examined. Chenodeoxycholic acid (CDCA) is one of the major bile acids. […] In addition, a specimen treated with dimethyl sulfoxide (DMSO) instead of CDCA was also prepared for comparison. Subsequently, the gene expression levels of BSEP, NTCP, and CYP7A1 were measured according to quantitative RT-PCR. […] In FIG. 9, the vertical axis indicates a relative value of the expression level of each gene in a case where the expression level in a case where DMSO has been treated is set to 1. […] All data are indicated as average value±standard deviation (n=3).

CYP1A2 = experiment: CYP induction test (quantitative RT-PCR) in PHH; type: cell-based, human; conditions: 50 μM omeprazole, 48 hours, versus DMSO
Method: (§2) PHH was treated with 50 μM omeprazole, 500 μM phenobarbital, or 20 μM rifampicin (all of which are from FUJIFILM Wako Pure Chemical Corporation) for 48 hours. Each of these drugs is known to induce CYP1A2, 2B6, and 3A4. In order to measure the inducibility of CYP1A2, 2B6, and 3A4, the expression level of CYP was measured by quantitative RT-PCR. The expression level of the target gene was standardized with the expression level of GAPDH. The inducibility was calculated as a change in expression level in terms of folds in cells treated with DMSO.
(§3) PHH was seeded in each of a microfluidic device and a polystyrene plate and cultured for 24 hours. Subsequently, the cultured PHH was treated with 50 μM omeprazole, 500 μM phenobarbital, or […] rifampicin for 48 hours. […] Subsequently, the expression level of each CYP gene was measured by quantitative RT-PCR. Cells treated with DMSO (final concentration: 0.1%) were used as a control.

CYP2B6 = experiment: CYP induction test (quantitative RT-PCR) in PHH; conditions: 500 μM phenobarbital, 48 hours, versus DMSO
Method: as §2, §3

[3] = tested on: GFP-expressing HuCCT1 cells; experiment: Formation of tubular bile duct-like structure in microfluidic device; type: cell-based, human; conditions: 10 ng/mL in culture medium, 4 days, lower layer flow path
Method: GFP-expressing HuCCT1 cells were seeded in the lower layer flow path of the microfluidic device in the presence or absence of 10 ng/mL of DLL1 or DLL4, and after 4 days, a cross-sectional image of the microfluidic device was acquired.

[4] = Measurement of active TGF-β1 in culture supernatant (ELISA), adsorption to culture vessel; conditions: 100 ng/mL TGF-β1, 48 hours
Method: PHH was treated with 100 ng/mL of TGF-β1 for 48 hours. In order to quantify active TGF-β1 in the supernatant, the culture medium was recovered and analyzed according to the instruction manual using a TGF beta-1 Human ELISA Kit (BMS249-4, Thermo Fisher Scientific, Inc.). The amount of active TGF-β1 was calculated based on each standard.
(§4) Subsequently, the cellular response of the PHH cultured in the microfluidic device and the polystyrene plate to a recombinant protein was examined. Specifically, PHH was treated with transforming growth factor-β1 (TGF-β1), which is one of the causative factors of hepatic fibrosis. The PHH was exposed to 100 ng/mL TGF-β1 for 48 hours. Subsequently, the amount of TGF-β1 in the cell culture supernatant was measured according to ELISA.
FIG. 35 is a graph showing the results of ELISA. In FIG. 35, “top” indicates the results for the upper layer flow path, and “bottom” indicates the results for the lower layer flow path.

PHH = experiment: Fibrosis marker gene expression in PHH treated with TGF-β1 (quantitative RT-PCR); type: cell-based, human
Method: as §4
Subsequently, the gene expression levels of ACTA2, COL1A1, and TIMP1, which are fibrosis markers, were measured by quantitative RT-PCR.
In FIG. 36, the vertical axis indicates a relative value in a case where the gene expression level in the cells (control) treated with phosphate buffered saline (PBS) is set to 1. […] The data is indicated as average value±standard deviation (n=3).
Subsequently, the gene expression level of TGF-β type II receptor (TGFBR2) was measured. […] Subsequently, the gene expression level of TGFBR2 was measured by quantitative RT-PCR.

[5] = microfluidic device versus polystyrene plate
[6] = 100 ng/mL TGF-β1, 48 hours, microfluidic device or polystyrene plate, versus PBS

T1 sequence (Q92887 whole entry): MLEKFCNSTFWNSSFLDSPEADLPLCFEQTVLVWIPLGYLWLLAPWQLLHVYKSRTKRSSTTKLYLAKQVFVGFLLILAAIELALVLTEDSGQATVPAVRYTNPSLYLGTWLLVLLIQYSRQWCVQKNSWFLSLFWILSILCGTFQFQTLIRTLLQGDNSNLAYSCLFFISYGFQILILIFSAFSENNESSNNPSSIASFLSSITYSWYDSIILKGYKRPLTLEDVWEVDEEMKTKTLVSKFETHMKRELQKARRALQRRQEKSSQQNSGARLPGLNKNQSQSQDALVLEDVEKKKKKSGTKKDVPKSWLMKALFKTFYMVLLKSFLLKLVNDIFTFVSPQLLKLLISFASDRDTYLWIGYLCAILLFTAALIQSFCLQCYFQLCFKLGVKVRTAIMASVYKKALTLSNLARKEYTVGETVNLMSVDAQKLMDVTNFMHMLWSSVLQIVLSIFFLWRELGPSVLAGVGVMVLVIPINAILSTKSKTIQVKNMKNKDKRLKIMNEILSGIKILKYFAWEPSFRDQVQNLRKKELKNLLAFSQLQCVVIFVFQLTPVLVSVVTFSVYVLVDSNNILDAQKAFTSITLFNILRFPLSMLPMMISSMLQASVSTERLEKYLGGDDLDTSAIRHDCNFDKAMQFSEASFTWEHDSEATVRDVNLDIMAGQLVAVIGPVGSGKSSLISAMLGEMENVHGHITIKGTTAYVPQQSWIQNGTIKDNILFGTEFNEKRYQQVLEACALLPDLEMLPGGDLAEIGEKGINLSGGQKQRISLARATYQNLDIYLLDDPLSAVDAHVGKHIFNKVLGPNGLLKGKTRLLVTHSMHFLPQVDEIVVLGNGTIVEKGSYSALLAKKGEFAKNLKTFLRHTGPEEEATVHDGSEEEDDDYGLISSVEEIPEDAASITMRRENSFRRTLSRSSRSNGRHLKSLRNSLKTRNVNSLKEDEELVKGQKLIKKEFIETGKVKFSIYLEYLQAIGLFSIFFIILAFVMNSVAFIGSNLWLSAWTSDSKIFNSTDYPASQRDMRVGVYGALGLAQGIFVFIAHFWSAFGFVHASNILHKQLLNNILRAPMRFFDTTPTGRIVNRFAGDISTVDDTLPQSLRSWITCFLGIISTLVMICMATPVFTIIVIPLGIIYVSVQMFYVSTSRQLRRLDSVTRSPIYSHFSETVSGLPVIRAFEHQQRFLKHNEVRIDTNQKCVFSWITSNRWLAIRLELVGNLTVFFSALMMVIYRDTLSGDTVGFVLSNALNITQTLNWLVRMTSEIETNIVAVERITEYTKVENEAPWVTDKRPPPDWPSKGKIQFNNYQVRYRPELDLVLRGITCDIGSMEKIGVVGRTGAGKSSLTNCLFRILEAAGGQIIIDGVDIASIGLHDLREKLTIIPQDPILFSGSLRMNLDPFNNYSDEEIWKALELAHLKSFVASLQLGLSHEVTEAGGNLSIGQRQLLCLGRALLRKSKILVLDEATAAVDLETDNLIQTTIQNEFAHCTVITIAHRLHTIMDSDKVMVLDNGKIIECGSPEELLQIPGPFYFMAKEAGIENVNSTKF

5(6)-carboxy-2′,7′-dichlorofluorescein [CDF]
amount of the CDF transported to the lower layer flow path (MRP2): increases

OCc1ncc2n1-c1ccc(Cl)cc1C(c1ccccc1F)=NC2 [1-hydroxymidazolam]
formation rate of metabolite, microfluidic device versus polystyrene plate (CYP3A4; PHH, 5 μM MDZ): similar
concentration during the observation period [1]: constant
Drug absorption rate [1]: 1.714
absorption in the microfluidic device [1]: also absorbed in the PDMS device

CC(C)c1c(C(=O)Nc2ccccc2O)c(-c2ccccc2)c(-c2ccc(F)cc2)n1CCC(O)CC(O)CC(=O)O (centres unmarked) [2OH-ATV, 2-hydroxyatorvastatin]
formation of 2OH-ATV (CYP3A; PHH, 1 μM ATV, 1, 2 and 4 hours): observed in a time-dependent manner
formation rate of 2OH-ATV in PHH cultured in the microfluidic device (CYP3A; [5]): partially reduced

CCc1cccc2cc(C(O)CNC(C)(C)C)oc12 (centres unmarked) [Bufuralol, bufuralol]
concentration during the observation period [1]: constant
concentration as % of initial concentration [1]: 30%
Drug absorption rate [1]: 3.327
absorption in the microfluidic device [1]: absorbed in the microfluidic device

C[C@H](CCC(=O)O)[C@H]1CC[C@H]2[C@@H]3[C@H](O)C[C@@H]4C[C@H](O)CC[C@]4(C)[C@H]3CC[C@]12C [CDCA, chenodeoxycholic acid]
CYP7A1 gene expression level (FXR): decreased only in the microfluidic device
BSEP gene expression level [2]: increased
CYP7A1 gene expression level [2]: decreased
NTCP gene expression level [2]: increased

O=C(O)Cc1ccccc1Nc1c(Cl)cccc1Cl [Diclofenac, diclofenac]
Drug absorption rate [1]: 1.043

CC(C)c1onc(-c2c(Cl)cccc2Cl)c1COc1ccc(/C=C/c2cccc(C(=O)O)c2)c(Cl)c1 [GW4046]
BSEP gene expression level (FXR): increased in both the PHH cultured in the microfluidic device and the PHH cultured on the polystyrene plate

Cc1ncc2n1-c1ccc(Cl)cc1C(c1ccccc1F)=NC2 [Midazolam, midazolam]
amount of the metabolite, microfluidic device versus polystyrene plate (CYP3A4; PHH, 5 μM MDZ): smaller
clearance (rate of drug metabolite formation divided by concentration of the drug in the culture medium) (CYP3A4; [5]): no difference
concentration during the observation period [1]: constant
concentration as % of initial concentration [1]: 9.5%
Drug absorption rate [1]: 10.41
absorption in the microfluidic device [1]: absorbed in the microfluidic device

CCOc1ccc(NC(C)=O)cc1 [Phenacetin, phenacetin]
Drug absorption rate [1]: 0.9569

CC[C@@]1(c2ccccc2)NC(=O)N(C)C1=O [S-mephenytoin]
Drug absorption rate [1]: 0.9897

CCCC(C(=O)OCCN(CC)CC)(c1ccccc1)c1ccccc1 [SKF-525A]
formation of 2OH-ATV on treatment with pan-CYP inhibitor (CYP3A; PHH, 100 μM SKF-525A, 1 μM ATV): significantly reduced

COc1ccc2[nH]c([S+]([O-])Cc3ncc(C)c(OC)c3C)nc2c1 (centres unmarked) [omeprazole]
CYP1A2 expression level (CYP1A2): induced in both the microfluidic device and the polystyrene plate

CCC1(c2ccccc2)C(=O)NC(=O)NC1=O [phenobarbital]
CYP2B6 expression level (CYP2B6): induced in both the microfluidic device and the polystyrene plate

DLL4: recombinant human Delta Like Canonical Notch Ligand 4, lumenization factor
formation of the tubular bile duct-like structure [3]: accelerates the formation of the tubular bile duct-like structure

TGF-β1: recombinant protein, one of the causative factors of hepatic fibrosis
adsorption of TGF-β1 to the microfluidic device [4]: has not allowed the adsorption
adsorption of TGF-β1 to the polystyrene plate [4]: allowed the adsorption
ACTA2 gene expression level (PHH; [6]): increased
COL1A1 gene expression level (PHH; [6]): increased
TIMP1 gene expression level (PHH; [6]): increased
TGFBR2 gene expression level (PHH; TGF-β1 treatment, PHH in microfluidic device and polystyrene plate): not changed
